Article PMC12841663, “Antiprotozoal Potential of Cultivated Geranium macrorrhizum Against Giardia duodenalis, Trichomonas gallinae and Leishmania infantum” (International Journal of Molecular Sciences, 2026)
Converted amounts (≈) assume the structure as drawn.

Assays:
[1] = system: intracellular amastigotes of L. infantum; test: Infection index of DH82 macrophages infected with L. infantum (intracellular amastigotes); assay type: cell-based, Leishmania infantum; conditions: 1 µg/mL, 48 h
Vero cells = system: Vero cells; parameters: method as in PMID 36672727; conditions: cited from earlier work
[2] = system: L. infantum promastigotes; test: Morphological evaluation by light microscopy (Diff-Quik), L. infantum; assay type: cell-based, Leishmania infantum; conditions: amphotericin B at 1 µg/mL
Protocol: L. infantum, T. gallinae and G. duodenalis were studied at 0, and 48 h after treatment with germacrone (100 µg/mL), and controls (DMSO 1%, metronidazole at 10 µg/mL for T. gallinae and G. duodenalis and amphotericin B at 1 µg/mL for L. infantum).
For L. infantum and T. gallinae, cultures in the exponential growth phase (10^7 promastigotes/mL and 5 × 10^5 trophozoites/mL, respectively) were treated in 96-well microplates. At each time point, quadruplicates were assigned per condition: growth control, germacrone, and the corresponding positive control (metronidazole or amphotericin B). For microscopy, quadruplicate wells corresponding to the same condition/time point were pooled prior to centrifugation to obtain sufficient biomass and a representative pellet for smear preparation. Pooled samples per condition/time point were centrifuged, resuspended in FBS and spread onto microscope slides. Once dried, samples were fixed and stained with Diff-Quik (Medion Diagnostic AG, Düdingen, Switzerland) following the manufacturer’s instructions. Additionally, three wells per condition (triplicates) were used for the MTT assay, with absorbance measured by spectrophotometry after 48 h.
Morphological changes were analyzed using light microscopy. Experiments were performed as independent biological replicates on different plates, and one Diff-Quik stained smear was obtained per condition and time point per biological replicate. For morphometric analysis, a total of 30 trophozoites per condition and time point were measured across the independent biological replicates and were selected by consecutive sampling during a predefined serpentine (zig-zag) scan across the preparation. Up to two eligible trophozoites per field (intact, well-focused and non-overlapping) were measured in sequential fields until n = 30 was reached, avoiding subjective selection of “representative” cells. Overlapping, partially visible, out-of-focus, edge-of-field, or debris-obscured trophozoites were excluded a priori. Trophozoites were photographed using a researcher’s mobile phone mounted to the microscope ocular. Calibration was performed at the same magnification using a stage micrometre and applied in ImageJ v. 1.54d. One Diff-Quik stained smear was obtained per condition/time point per biological replicate Cell length, cell width, cell surface, nuclear length, nuclear width, axoneme (only Giardia), and length of axostyle (only T. gallinae) were measured with ImageJ software, and the data were recorded in an Excel database for statistical analysis.
The Shapiro–Wilk test was used to assess the normality of the morphological variables. When data followed a normal distribution, Student’s t-test was applied; otherwise, non-parametric tests, such as the Mann–Whitney U test, was used. Values of p < 0.05 were considered significant. For the morphological analysis, the mean, standard deviation, median, and interquartile range were calculated using SPSS version 20 (IBM Corp., Armonk, NY, USA).

[3] = system: L. infantum promastigotes; parameters: method as in doi:10.1080/10412905.2013.820669; conditions: cited from earlier work
[4] = system: G. duodenalis trophozoites; test: Anti-Giardia activity assay (MTT viability); assay type: cell-based; conditions: pure compounds
Protocol: Anti-Giardia (AG) activity assays were conducted on G. duodenalis trophozoites from the ATCC® 30957 strain (assemblage A), using flat-bottom microwell plates in quadruplicate. […] Incubation was carried out for 24 h at 37 °C. EOs and pure compounds were solved in DMSO (Sigma, Madrid, Spain) (<1% final concentration). […] Trophozoites/promastigotes viability was assessed using the modified MTT colorimetric assay, as described previously in the literature, with results further validated by microscopic examination. The plate was analyzed in a spectrophotometer at a wavelength of 570 nm. The percentage of antiparasitic activity was calculated as growth inhibition, using the following formula: % AT = 100 - [(Ap - Ab) ÷ (Ac - Ab)] × 100, where Ap is the absorbance of the tested product, Ab the absorbance of the blank and Ac the absorbance of the control wells (culture without treatment). […] Metronidazole (Acros Organics, Madrid, Spain) served as a reference compound for anti-Giardia activity and Anti-Trichomonas activity and amphotericin B for anti-Leishmania activity. Data was analyzed using STATGRAPHICS Centurion XIX ([…].com) (Statgraphics Technologies, Inc., The Plains, VA, USA). The mammalian cells and trophozoites viability were tested with each compound in a dose-response experiment to calculate their relative potency (CC50 or IC50 value, respectively).

[5] = Cytotoxicity of pure compounds on Vero cells (MTT); assay type: cell-based; conditions: African green monkey, Vero cells (kidney cells); 48 h exposure; 50% Vero cell mortality; MTT; read-out: Vero Cells CC50
Protocol: African green monkey kidney cells (Vero cells) were maintained in Dulbecco’s modified Eagle’s minimal essential medium (DMEM) (Thermo Fisher Scientific, Waltham, MA, USA) supplemented with 10% FBS and 1% Pen-Strep at 37 °C under a humidified atmosphere of 5% CO2/95% air.
Cells seeded in 96-well flat-bottom microplates with 100 μL medium per well (initial densities 10^4 cells per well) were exposed for 48 h to serial dilutions (100, 75, 50, 25, 10 and 1 µg/mL) of the tested compounds in DMSO (<1% final concentration). Cell viability was analyzed by the MTT colorimetric assay method, and the purple-colored formazan precipitate was dissolved with 100 μL of DMSO [23].
(§1) Data was analyzed using STATGRAPHICS Centurion XIX (https://www.statgraphics.com) (Statgraphics Technologies, Inc., The Plains, VA, USA). The mammalian cells and trophozoites viability were tested with each compound in a dose–response experiment to calculate their relative potency (CC50 or IC50 value, respectively). IC50 (μg/mL) expresses the dose of EOs, extracts or pure compounds needed to produce 50% mortality of trophozoites, while CC50 (μg/mL) expresses the dose of compounds necessary to produce 50% mortality of Vero cells.

[6] = system: L. infantum promastigotes; test: Anti-Leishmania activity assay on promastigotes (MTT viability); assay type: cell-based; conditions: pure compounds
Protocol: Anti-Leishmania (AL) activity was assessed on L. infantum promastigotes (MCAN/ES/98/LLM-722), kindly provided by Dr. J.M. Requena from CBM-CSIC, as well as on L. infantum (M/CAN/ES/96/BCN150 zymodeme MON-1), strain isolated from a dog with active visceral leishmaniasis. L. infantum promastigotes (MCAN/ES/98/LLM-722) were cultured in RPMI medium supplemented with 15% FBS and 10 μg/mL of hemin (Acros Organics, Madrid, Spain), grown at 26 °C. Promastigotes in logarithmic growth were seeded in 96-well flat-bottom plates at a volume of 100 μL of culture per well and incubated for 48 h. Promastigotes for macrophage infection (M/CAN/ES/96/BCN150 zymodeme MON-1) were maintained at 26 °C in Schneider’s insect medium (Lonza, Basel, Switzerland) supplemented with 10% FBS and 100 U/mL penicillin and 100 μg/mL streptomycin (Lonza, Basel, Switzerland) (Pen-Strep). Promastigotes in the stationary phase of growth (5–6 days) were washed twice in phosphate-buffered saline at 2700× g for 10 min at 22 °C and employed for macrophage infection.
EOs and pure compounds were solved in DMSO (Sigma, Madrid, Spain) (<1% final concentration). […] Trophozoites/promastigotes viability was assessed using the modified MTT colorimetric assay, as described previously in the literature, with results further validated by microscopic examination. The plate was analyzed in a spectrophotometer at a wavelength of 570 nm. The percentage of antiparasitic activity was calculated as growth inhibition, using the following formula: % AT = 100 − [(Ap − Ab) ÷ (Ac − Ab)] × 100, where Ap is the absorbance of the tested product, Ab the absorbance of the blank and Ac the absorbance of the control wells (culture without treatment).
Pure compounds were tested using the same method, although at concentrations of 100, 75, 50, 25, 10, and 1 μg/mL. Metronidazole (Acros Organics, Madrid, Spain) served as a reference compound for anti-Giardia activity and Anti-Trichomonas activity and amphotericin B for anti-Leishmania activity.
as §1

T. gallinae trophozoites = test: Anti-Trichomonas activity assay (MTT viability); assay type: cell-based; conditions: pure compounds
Protocol: The anti-Trichomonas (AT) activity assay utilized T. gallinae trophozoites from an isolate obtained from a wood pigeon by Dr. […] EOs and pure compounds were solved in DMSO (Sigma, Madrid, Spain) (<1% final concentration). […] Trophozoites/promastigotes viability was assessed using the modified MTT colorimetric assay, as described previously in the literature, with results further validated by microscopic examination. The plate was analyzed in a spectrophotometer at a wavelength of 570 nm. The percentage of antiparasitic activity was calculated as growth inhibition, using the following formula: % AT = 100 - [(Ap - Ab) ÷ (Ac - Ab)] × 100, where Ap is the absorbance of the tested product, Ab the absorbance of the blank and Ac the absorbance of the control wells (culture without treatment). […] Metronidazole (Acros Organics, Madrid, Spain) served as a reference compound for anti-Giardia activity and Anti-Trichomonas activity and amphotericin B for anti-Leishmania activity. Data was analyzed using STATGRAPHICS Centurion XIX ([…].com) (Statgraphics Technologies, Inc., The Plains, VA, USA). The mammalian cells and trophozoites viability were tested with each compound in a dose-response experiment to calculate their relative potency (CC50 or IC50 value, respectively).

Row | Compound | Infection Index ([1]; % infected x amastigotes per infected cell) | % Infected Cells ([1]; mean ± SD) [%] | nº Amastigotes/Infected Cell ([1]; mean ± SD) | Vero Cells CC50 (Vero cells) | morphological alterations of promastigotes [2] | L. infantum (pm) IC50 [3] | IC50 [4] [µg/mL] | CC50 at 48 h [5] [µg/mL] | IC50 [6] [µg/mL] | IC50 (T. gallinae trophozoites) [µg/mL]
1 | C[C@@H]1[C@H](O)[C@@H](C)/C=C/C=C/C=C/C=C/C=C/C=C/C=C/[C@H](O[C@@H]2O[C@H](C)[C@@H](O)[C@H](N)[C@@H]2O)C[C@@H]2O[C@](O)(C[C@@H](O)C[C@@H](O)[C@H](O)CC[C@@H](O)C[C@@H](O)CC(=O)O[C@H]1C)C[C@H](O)[C@H]2C(=O)O [AmB, amphotericin B] | 8.9 ± 0.0 | 6.4 ± 3.7 | 1.4 ± 0.7 | 7.11 [21] µg/mL | strong morphological alterations | 0.01 [22] µg/mL |  |  |  | 
2 | C=C[C@]1(C)CC(=O)C(=C(C)C)C[C@H]1C(=C)C [Compound 1, β-elemenone] |  |  |  |  |  |  | > 100 | > 100 | > 100 | > 100
3 | CC(C)=C1CC(=O)[C@]2(C)CC[C@H]2[C@@H](C)CC1=O [Compound 3] |  |  |  |  |  |  | > 100 | > 100 | 35.5 (≈ 151 µM) | > 100
4 | C/C1=C\CC2(OC2(C)C)C(=O)C/C(C)=C/CC1 (stereo not drawn) [Compound 4] |  |  |  |  |  |  | > 100 | > 100 | 88.8 (≈ 379 µM) | 51.6 (≈ 220 µM)
